Measured values as given in patent US20260176275A1, “VINYLPHOSPHONIC ACID-MODIFIED MRNA CAP ANALOG, METHOD FOR PREPARING SAME, AND USE THEREOF” (Jiangsu Synthgene Biotechnology Co., Ltd., priority 2022, published 2026).

Columns and labels:
T7 RNA polymerase [1] = target: T1, T7 RNA polymerase (Escherichia phage T7, UniProt P00573); assay: IVT capping rate of mRNA by LC-MS after RNase H cleavage; format: biochemical; conditions: for Capping rate: LC-MS of mRNA transcribed with the cap analog; for capping efficiency compared with Comparative Example 1 (in words): text summary of Table 4
Procedure: (§1) In-vitro synthesis of mRNA cap analogs modified with vinylphosphonic acid: Firstly, a plasmid was linearized with NotI and digested at […] overnight. A DNA template was extracted. mRNAs were synthesized by in-vitro transcription using the vinylphosphonic acid-modified mRNA cap analogs of Examples 1-7 and compounds 10-13, 16, 17, 25, 31 and 34, and the cap analog of Comparative Example 1 as cap structures, respectively.
(§2) Note: During the experiment, the volume of the materials required for the system was calculated firstly, and then sample loading was performed. Firstly, sterile enzyme-free water was added into the system, and then 10× buffer, NTPs, and the cap analog were sequentially added. The mixture was uniformly mixed and then gently centrifuged, followed by addition of the nuclease inhibitor, the inorganic pyrophosphatase, the T7 RNA polymerase, and the linearized DNA template. The mixture was well mixed, then gently centrifuged, and incubated at 37° C. After 2 h, DNase I (1 U) was added, and the mixture was incubated at 37° C. for another 30 min to remove the DNA template. RNA purification was then performed (usually using the magnetic bead purification method). The purified mRNA was dissolved in sterile enzyme-free water, and then quantitative detection was performed by using Nanodrop One.
Liquid chromatography-mass spectrometry (LC-MS) was used to detect the IVT capping rates of mRNAs with different starting cap analogs. Firstly, a labeled (usually biotin-labeled) DNA probe matched with the starting base of mRNA as the transcript product was required to be designed, and streptavidin-labeled magnetic beads were washed, and then incubated with the synthesized DNA probe, mRNA and 10× RNase H reaction buffer with slowly mixing at room temperature for 30 min. 20 L of RNase H (5 U/μL) was then added, and the mixture was incubated at 37° C. for 3 h, with uniform mixing every half hour. After the incubation was completed, the magnetic beads were cleaned, and then 100 μL of 75% methanol heated to 80° C. was added to the cleaned magnetic beads. The mixture was heated to 80° C. on a heating plate, held for 3 min, and then placed on a magnetic rack. The supernatant was pipetted and dried at room temperature for 45 min to 10 Lby using an evaporation centrifuge. The sample was then resuspended in 50 μL of 100 μM EDTA/1% MeOH for LC-MS analysis to determine the capping of RNA in the transcription reaction. Due to the significant difference in molecular weight between capped and uncapped bases, the capping rates of mRNA transcription initiated with different cap analogs can be determined by using the difference in molecular weight.

T7 RNA polymerase [2] = target: T1, T7 RNA polymerase; assay: mRNA in-vitro transcription yield with cap analog (T7 IVT, Nanodrop One quantification); format: biochemical; conditions: for Yield: mRNA from 20 μL IVT system, 1 μl 100 mM cap analog, 1 μg template, 37° C. 2 h; for in-vitro transcription yield compared with Comparative Example 1 (in words): text summary of Table 4
Procedure: as §1, §2

[3] = target: eukaryotic initiation factor (elF4E) (Homo sapiens, UniProt P06730); assay: Assay of binding ability to eukaryotic initiation factor (elF4E), Biacore T100; conditions: cap analog to elF4E protein; running buffer pH 6.0 or 7.4; read-out: Binding constant (converted)
Procedure: Test method: Firstly, experimental samples, including the cap analog samples of Examples 1-7, compounds 10-13, 16, 17, 25, 31 and 34, and Comparative Example 1, were diluted with a running buffer (50 mM phosphate, 100 mM sodium chloride, and 0.01% vol/vol Tween 20, pH 6.0 or 7.4). The sample injection time was […], the sample injection flow rate was 20 L/min, and the dissociation time was […]. The residual samples were eluted with a regeneration buffer (10 mM HEPES, 150 mM NaCl, and 0.010% vol/vol Tween 20, pH 7.4) for 30 s at a flow rate of 30 μL/min. Finally, through analysis by Biacore T100 evaluation software (version 2.0.2), sensorgrams were generated and the binding constants were calculated.

T1 sequence (P00573 whole entry): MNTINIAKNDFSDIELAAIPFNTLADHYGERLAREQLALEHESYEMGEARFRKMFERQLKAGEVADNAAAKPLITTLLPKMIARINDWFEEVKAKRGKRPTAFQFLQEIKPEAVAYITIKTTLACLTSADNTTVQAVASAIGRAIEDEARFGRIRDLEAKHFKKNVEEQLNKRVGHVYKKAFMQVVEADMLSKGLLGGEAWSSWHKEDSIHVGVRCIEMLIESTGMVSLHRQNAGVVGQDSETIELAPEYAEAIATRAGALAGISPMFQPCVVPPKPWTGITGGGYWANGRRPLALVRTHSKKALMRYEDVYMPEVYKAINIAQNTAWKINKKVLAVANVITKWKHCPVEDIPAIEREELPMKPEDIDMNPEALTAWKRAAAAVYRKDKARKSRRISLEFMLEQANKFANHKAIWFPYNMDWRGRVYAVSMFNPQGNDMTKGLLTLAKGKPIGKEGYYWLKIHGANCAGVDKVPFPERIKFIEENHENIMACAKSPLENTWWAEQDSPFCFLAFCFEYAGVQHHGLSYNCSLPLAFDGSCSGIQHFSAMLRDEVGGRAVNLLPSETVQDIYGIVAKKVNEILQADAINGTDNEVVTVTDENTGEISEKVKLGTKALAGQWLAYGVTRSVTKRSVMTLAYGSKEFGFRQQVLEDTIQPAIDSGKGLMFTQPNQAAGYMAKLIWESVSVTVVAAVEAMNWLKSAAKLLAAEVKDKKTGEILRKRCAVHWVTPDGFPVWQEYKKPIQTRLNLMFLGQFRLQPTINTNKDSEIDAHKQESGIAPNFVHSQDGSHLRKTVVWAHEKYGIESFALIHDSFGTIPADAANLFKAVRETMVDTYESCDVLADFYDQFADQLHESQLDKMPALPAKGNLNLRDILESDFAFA
Sequence of eukaryotic initiation factor (elF4E) (P06730 whole entry): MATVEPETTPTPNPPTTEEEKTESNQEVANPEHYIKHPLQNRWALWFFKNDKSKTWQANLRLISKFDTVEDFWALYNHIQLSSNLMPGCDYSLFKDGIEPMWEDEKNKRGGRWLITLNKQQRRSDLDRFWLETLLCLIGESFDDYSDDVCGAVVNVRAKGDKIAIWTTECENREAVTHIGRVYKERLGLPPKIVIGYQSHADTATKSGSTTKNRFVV

Row | Structure (SMILES) | Capping rate (T7 RNA polymerase [1]) [%] | Yield (T7 RNA polymerase [2]) [µg] | Kd [3] [nM] | capping efficiency compared with Comparative Example 1 (in words) (T7 RNA polymerase [1]) | in-vitro transcription yield compared with Comparative Example 1 (in words) (T7 RNA polymerase [2])
1 | COCCOC1C(O)[C@H](n2c[n+](C)c3c(=O)[nH]c(N)nc32)O[C@@H]1/C=C/P(=O)(O)OP(=O)(O)OP(=O)(O)OC[C@H]1O[C@@H](n2cnc3c(N)ncnc32)C(OC)C1OP(=O)(O)OC[C@H]1O[C@@H](n2cnc3c(=O)[nH]c(N)nc32)C(O)C1O (stereo partly drawn) [Compound 10] | 96.4 | 124 | 218 | – | –
2 | COCC1C(O)[C@H](n2c[n+](C)c3c(=O)[nH]c(N)nc32)O[C@@H]1/C=C/P(=O)(O)OP(=O)(O)OP(=O)(O)OC[C@H]1O[C@@H](n2cnc3c(N)ncnc32)C(OC)C1OP(=O)(O)OC[C@H]1O[C@@H](n2cnc3c(=O)[nH]c(N)nc32)C(O)C1O (stereo partly drawn) [Compound 11] | 95.7 | 116 | 246 | – | –
3 | COC1C(OP(=O)(O)OC[C@H]2O[C@@H](n3cnc4c(=O)[nH]c(N)nc43)C(O)C2O)[C@@H](COP(=O)(O)OP(=O)(O)OP(=O)(O)/C=C/[C@H]2O[C@@H](n3c[n+](C)c4c(=O)[nH]c(N)nc43)C(O)C2CNC(C)=O)O[C@H]1n1cnc2c(N)ncnc21 (stereo partly drawn) [Compound 12] | 96.6 | 123 | 214 | – | –
4 | COC1C(OP(=O)(O)OC[C@H]2O[C@@H](n3cnc4c(=O)[nH]c(N)nc43)C(O)C2O)[C@@H](COP(=O)(O)OP(=O)(O)OP(=O)(O)/C=C/[C@H]2O[C@@H](n3c[n+](C)c4c(=O)[nH]c(N)nc43)CC2OC)O[C@H]1n1cnc2c(N)ncnc21 (stereo partly drawn) [Compound 13] | 95.4 | 112 | 265 | – | –
5 | COC1C(OP(=O)(O)OC[C@H]2O[C@@H](n3cnc4c(=O)[nH]c(N)nc43)C(O)C2O)[C@@H](COP(=O)(O)OP(=O)(O)OP(=O)(O)/C=C/[C@H]2O[C@@H](n3c[n+](C)c4c(=O)[nH]c(N)nc43)C(F)C2O)O[C@H]1n1cnc2c(N)ncnc21 (stereo partly drawn) [Compound 16] | 95.8 | 114 | 269 | – | –
6 | COC1C(OP(=O)(O)OC[C@H]2O[C@@H](n3ccc(=O)[nH]c3=O)C(O)C2O)[C@@H](COP(=O)(O)OP(=O)(O)OP(=O)(O)/C=C/[C@H]2O[C@@H](n3c[n+](C)c4c(=O)[nH]c(N)nc43)C(O)C2CNC(C)=O)O[C@H]1n1cnc2c(N)ncnc21 (stereo partly drawn) [Compound 17] | 96.2 | 122 | 222 | – | –
7 | COC1C(OP(=O)(O)OC[C@H]2O[C@@H](n3cnc4c(=O)[nH]c(N)nc43)C(O)C2O)[C@@H](/C=C\P(=O)(O)OP(=O)(O)OP(=O)(O)OC[C@H]2O[C@@H](n3c[n+](C)c4c(=O)[nH]c(N)nc43)C(O)C2CNC(C)=O)O[C@H]1n1cnc2c(N)ncnc21 (stereo partly drawn) [Compound 25] | 96.1 | 120 | 224 | – | –
8 | COC1C(OP(=O)(O)OC[C@H]2O[C@@H](n3cnc4c(=O)[nH]c(N)nc43)C(O)C2O)[C@@H](COP(=O)(O)OP(=O)(O)OP(=O)(O)/C=C/[C@H]2O[C@@H](n3c[n+](C)c4c(=O)[nH]c(N)nc43)C(O)C2CN(C)C(C)=O)O[C@H]1n1cnc2c(N)ncnc21 (stereo partly drawn) [Compound 31] | 95.7 | 115 | 239 | – | –
9 | CCCC(=O)NCC1C(O)[C@H](n2c[n+](C)c3c(=O)[nH]c(N)nc32)O[C@@H]1/C=C/P(=O)(O)OP(=O)(O)OP(=O)(O)OC[C@H]1O[C@@H](n2cnc3c(N)ncnc32)C(OC)C1OP(=O)(O)OC[C@H]1O[C@@H](n2cnc3c(=O)[nH]c(N)nc32)C(O)C1O (stereo partly drawn) [Compound 34] | 95.9 | 117 | 236 | – | –
10 | COC1C(OP(=O)(O)/C=C/[C@H]2O[C@@H](n3cnc4c(=O)[nH]c(N)nc43)C(O)C2O)[C@@H](COP(=O)(O)OP(=O)(O)OP(=O)(O)OC[C@H]2O[C@@H](n3c[n+](C)c4c(=O)[nH]c(N)nc43)C(O)C2O)O[C@H]1n1cnc2c(N)ncnc21 (stereo partly drawn) [Example 1] | 96.4 | 117 | 313 | – | –
11 | COC1C(OP(=O)(O)OC[C@H]2O[C@@H](n3cnc4c(=O)[nH]c(N)nc43)C(O)C2O)[C@@H](COP(=O)(O)OP(=O)(O)OP(=O)(O)/C=C/[C@H]2O[C@@H](n3c[n+](C)c4c(=O)[nH]c(N)nc43)C(O)C2O)O[C@H]1n1cnc2c(N)ncnc21 (stereo partly drawn) [Example 2] | 96.3 | 125 | 216 | – | –
12 | COC1C(OP(=O)(O)OC[C@H]2O[C@@H](n3cnc4c(=O)[nH]c(N)nc43)C(O)C2O)[C@@H](/C=C/P(=O)(O)OP(=O)(O)OP(=O)(O)OC[C@H]2O[C@@H](n3c[n+](C)c4c(=O)[nH]c(N)nc43)C(O)C2O)O[C@H]1n1cnc2c(N)ncnc21 (stereo partly drawn) [Example 3] | 95.3 | 122 | 240 | – | –
13 | COC1[C@@H](OP(=O)(O)/C=C/[C@H]2O[C@@H](n3cnc4c(=O)[nH]c(N)nc43)C(O)[C@H]2O)[C@@H](COP(=O)(O)OP(=O)(O)OP(=O)(O)/C=C\[C@H]2O[C@@H](n3c[n+](C)c4c(=O)[nH]c(N)nc43)[C@@H](O)C2O)O[C@H]1n1cnc2c(N)ncnc21 (stereo partly drawn) [Example 4] | 94.5 | 106 | 377 | significantly lower than those of Comparative Example 1 | significantly lower than those of Comparative Example 1
14 | COC1[C@@H](OP(=O)(O)OC[C@H]2O[C@@H](n3cnc4c(=O)[nH]c(N)nc43)C(O)[C@H]2O)[C@@H](/C=C\P(=O)(O)OP(=O)(O)OP(=O)(O)/C=C\[C@H]2O[C@@H](n3c[n+](C)c4c(=O)[nH]c(N)nc43)[C@@H](O)C2O)O[C@H]1n1cnc2c(N)ncnc21 (stereo partly drawn) [Example 5] | 90.2 | 102 | 395 | significantly lower than those of Comparative Example 1 | significantly lower than those of Comparative Example 1
15 | COC1[C@@H](OP(=O)(O)/C=C/[C@H]2O[C@@H](n3cnc4c(=O)[nH]c(N)nc43)C(O)[C@H]2O)[C@@H](/C=C\P(=O)(O)OP(=O)(O)OP(=O)(O)OC[C@H]2O[C@@H](n3c[n+](C)c4c(=O)[nH]c(N)nc43)[C@@H](O)C2O)O[C@H]1n1cnc2c(N)ncnc21 (stereo partly drawn) [Example 6] | 87.3 | 96 | 362 | significantly lower than those of Comparative Example 1 | significantly lower than those of Comparative Example 1
